Assay results reported in PubChem BioAssay (NCI).
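Test compounds were applied to cells in 96-well plates for 48 hours at 5 doses. Abbreviation: GI50, concentration required for 50% inhibition of growth. TGI denotes the concentration required for complete inhibition of growth.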

Legend:
Experiment in all cases: NCI tumour cell line growth inhibition, 48 h
TK-10 renal = system: TK-10 renal
UACC-257 melanoma = system: UACC-257 melanoma
786-0 renal = system: 786-0 renal
SK-MEL-2 melanoma = system: SK-MEL-2 melanoma
RXF 393 renal = system: RXF 393 renal
COLO 205 colon = system: COLO 205 colon
MALME-3M melanoma = system: MALME-3M melanoma
HS 578T breast = system: HS 578T breast
SK-OV-3 ovarian = system: SK-OV-3 ovarian
DMS 273 small cell lung = system: DMS 273 small cell lung
KM20L2 colon = system: KM20L2 colon

CC(=O)N1CCn2c1nc1cc(Cl)ccc12
TGI (TK-10 renal): > 100 µM
TGI (UACC-257 melanoma): > 100 µM
TGI (786-0 renal): > 100 µM
TGI (SK-MEL-2 melanoma): 92.4 µM
TGI (RXF 393 renal): 53.9 µM
TGI (COLO 205 colon): > 100 µM
TGI (MALME-3M melanoma): > 100 µM
TGI (HS 578T breast): > 100 µM
TGI (SK-OV-3 ovarian): 68 µM

C[Si](C)(c1ccccc1)[C@H]1CCCC=C1CCNC1c2ccccc2CCc2ccccc21
TGI (TK-10 renal): > 100 µM
TGI (UACC-257 melanoma): > 100 µM
TGI (786-0 renal): > 100 µM
TGI (SK-MEL-2 melanoma): > 100 µM
TGI (RXF 393 renal): > 100 µM
TGI (COLO 205 colon): > 100 µM
TGI (MALME-3M melanoma): > 100 µM
TGI (HS 578T breast): > 100 µM
TGI (SK-OV-3 ovarian): > 100 µM

CC(=O)[CH-]C(=O)c1ccccc1.CC(=O)[CH-]C(=O)c1ccccc1.C[C@]12CCC(=O)C=C1CC[C@@H]1C2CC[C@@]2(C)C1CC[C@]2(C)[O-].C[C@]12CCC(=O)C=C1CC[C@@H]1C2CC[C@@]2(C)C1CC[C@]2(C)[O-].Cl.[Ti+4] (stereo partly specified)
GI50 (TK-10 renal): 34.2 µM
TGI (TK-10 renal): > 100 µM
GI50 (UACC-257 melanoma): 18 µM
TGI (UACC-257 melanoma): 51.7 µM
GI50 (SK-MEL-2 melanoma): 13.9 µM
TGI (SK-MEL-2 melanoma): 33.2 µM
GI50 (DMS 273 small cell lung): 17.4 µM
TGI (DMS 273 small cell lung): 89.9 µM
GI50 (COLO 205 colon): 37.6 µM
TGI (COLO 205 colon): > 100 µM
GI50 (MALME-3M melanoma): 13.2 µM
TGI (MALME-3M melanoma): 37.1 µM
GI50 (SK-OV-3 ovarian): 23.4 µM
TGI (SK-OV-3 ovarian): 53.1 µM

Cc1cc(=O)[nH]c(NN2C(Cl)C(=O)C2c2cccc(Cl)c2)n1 (stereo unspecified)
TGI (TK-10 renal): > 100 µM
TGI (UACC-257 melanoma): > 100 µM
TGI (SK-MEL-2 melanoma): 35.8 µM
TGI (RXF 393 renal): 23.2 µM
TGI (DMS 273 small cell lung): 33.9 µM
TGI (KM20L2 colon): > 100 µM

COC(OC)[C@@H]1OC[C@@H](O)[C@@H]1n1cnc2c(N)ncnc21
TGI (TK-10 renal): > 100 µM
TGI (UACC-257 melanoma): > 100 µM
TGI (786-0 renal): > 100 µM
TGI (SK-MEL-2 melanoma): > 100 µM
TGI (RXF 393 renal): > 100 µM
TGI (COLO 205 colon): > 100 µM
TGI (MALME-3M melanoma): > 100 µM
TGI (HS 578T breast): > 100 µM
TGI (SK-OV-3 ovarian): > 100 µM

Nc1c(Cl)ncnc1NCCCNc1ncnc(Cl)c1N
TGI (TK-10 renal): > 100 µM
TGI (UACC-257 melanoma): > 100 µM
TGI (786-0 renal): > 100 µM
TGI (SK-MEL-2 melanoma): > 100 µM
TGI (RXF 393 renal): > 100 µM
TGI (DMS 273 small cell lung): > 100 µM
TGI (COLO 205 colon): > 100 µM
TGI (KM20L2 colon): > 100 µM
TGI (SK-OV-3 ovarian): > 100 µM

COc1cccc(/C=N/[N-]C(N)=O)c1[O-].[Cu+2].[OH3+].c1ccc(-c2ccccn2)nc1
TGI (TK-10 renal): 42.9 µM
TGI (UACC-257 melanoma): > 100 µM
TGI (786-0 renal): 36.6 µM
TGI (SK-MEL-2 melanoma): 45.1 µM
TGI (RXF 393 renal): 40.8 µM
TGI (COLO 205 colon): 55.4 µM
TGI (MALME-3M melanoma): > 100 µM
TGI (KM20L2 colon): > 100 µM
TGI (SK-OV-3 ovarian): 27.3 µM

O=C(NNc1ccccc1)/C(=C/c1ccc2c(c1)OCO2)NC(=O)c1ccccc1
TGI (TK-10 renal): > 100 µM
TGI (UACC-257 melanoma): > 100 µM
TGI (786-0 renal): > 100 µM
TGI (SK-MEL-2 melanoma): > 100 µM
TGI (RXF 393 renal): > 100 µM
TGI (DMS 273 small cell lung): > 100 µM
TGI (COLO 205 colon): > 100 µM
TGI (MALME-3M melanoma): > 100 µM
TGI (KM20L2 colon): > 100 µM
TGI (SK-OV-3 ovarian): > 100 µM

O=C1Nc2ccccc2Nc2ccncc21
TGI (UACC-257 melanoma): > 100 µM
TGI (SK-MEL-2 melanoma): > 100 µM
TGI (RXF 393 renal): > 100 µM
TGI (DMS 273 small cell lung): > 100 µM
TGI (COLO 205 colon): > 100 µM
TGI (MALME-3M melanoma): > 100 µM
TGI (KM20L2 colon): > 100 µM
TGI (SK-OV-3 ovarian): > 100 µM

CC(=O)NC(CC(C)C)C(=O)NC(Cc1ccccc1)C(=S)N1CCCC1 (stereo unspecified)
TGI (TK-10 renal): > 100 µM
TGI (UACC-257 melanoma): > 100 µM
TGI (786-0 renal): > 100 µM
TGI (SK-MEL-2 melanoma): > 100 µM
TGI (RXF 393 renal): > 100 µM
TGI (DMS 273 small cell lung): > 100 µM
TGI (COLO 205 colon): > 100 µM
TGI (MALME-3M melanoma): > 100 µM
TGI (KM20L2 colon): > 100 µM
TGI (SK-OV-3 ovarian): > 100 µM

CC(C)(C)OC(=O)NCCCCC(NC(=O)c1ccccc1)C(N)=O (stereo unspecified)
TGI (TK-10 renal): > 100 µM
TGI (UACC-257 melanoma): > 100 µM
TGI (786-0 renal): > 100 µM
TGI (SK-MEL-2 melanoma): > 100 µM
TGI (RXF 393 renal): > 100 µM
TGI (COLO 205 colon): > 100 µM
TGI (MALME-3M melanoma): > 100 µM
TGI (HS 578T breast): > 100 µM
TGI (SK-OV-3 ovarian): > 100 µM

Fc1cccc(F)c1C1SCc2nc3ccc(Cl)cc3n21 (stereo unspecified)
TGI (TK-10 renal): > 100 µM
TGI (UACC-257 melanoma): > 100 µM
TGI (786-0 renal): > 100 µM
TGI (SK-MEL-2 melanoma): > 100 µM
TGI (RXF 393 renal): > 100 µM
TGI (COLO 205 colon): > 100 µM
TGI (MALME-3M melanoma): > 100 µM
TGI (HS 578T breast): > 100 µM
TGI (SK-OV-3 ovarian): > 100 µM

O=C1C(CN2CCOCC2)CCCC1CN1CCOCC1 (stereo unspecified)
TGI (TK-10 renal): 8.72 µM
TGI (UACC-257 melanoma): 5.72 µM
TGI (786-0 renal): 2.61 µM
TGI (SK-MEL-2 melanoma): 16.3 µM
TGI (RXF 393 renal): 4.14 µM
TGI (DMS 273 small cell lung): 19.4 µM
TGI (COLO 205 colon): 6.21 µM
TGI (MALME-3M melanoma): 2.04 µM
TGI (KM20L2 colon): 58.2 µM
TGI (HS 578T breast): 75.9 µM
TGI (SK-OV-3 ovarian): 51.8 µM

COc1ccc(/C=N/n2cnc3[nH]c(C)c(Cc4ccccc4)c3c2=N)cc1
TGI (TK-10 renal): > 100 µM
TGI (UACC-257 melanoma): > 100 µM
TGI (786-0 renal): > 100 µM
TGI (SK-MEL-2 melanoma): > 100 µM
TGI (RXF 393 renal): 79.3 µM
TGI (COLO 205 colon): > 100 µM
TGI (MALME-3M melanoma): > 100 µM
TGI (HS 578T breast): > 100 µM
TGI (SK-OV-3 ovarian): > 100 µM

O=P(O)(O)C1(P(=O)(O)O)CC1
TGI (TK-10 renal): > 100 µM
TGI (UACC-257 melanoma): > 100 µM
TGI (786-0 renal): > 100 µM
TGI (SK-MEL-2 melanoma): > 100 µM
TGI (RXF 393 renal): > 100 µM
TGI (DMS 273 small cell lung): > 100 µM
TGI (COLO 205 colon): > 100 µM
TGI (MALME-3M melanoma): > 100 µM
TGI (KM20L2 colon): > 100 µM
TGI (SK-OV-3 ovarian): > 100 µM

COc1ccc(C(OCC2OC(n3ccc(NC(=O)c4ccccc4)nc3=O)CC2OP2(=S)SCCS2)(c2ccccc2)c2ccc(OC)cc2)cc1 (stereo unspecified)
TGI (TK-10 renal): > 100 µM
TGI (UACC-257 melanoma): > 100 µM
TGI (786-0 renal): 82 µM
TGI (SK-MEL-2 melanoma): > 100 µM
TGI (RXF 393 renal): 88.1 µM
TGI (COLO 205 colon): > 10 µM
TGI (MALME-3M melanoma): 70.2 µM
TGI (HS 578T breast): 76.3 µM
TGI (SK-OV-3 ovarian): 64.2 µM

C[N+]1(CCN[N+]2(C)CCCCC2)CCc2ccccc2C1 (stereo unspecified)
TGI (TK-10 renal): > 100 µM
TGI (UACC-257 melanoma): > 100 µM
TGI (786-0 renal): > 100 µM
TGI (SK-MEL-2 melanoma): > 100 µM
TGI (RXF 393 renal): > 100 µM
TGI (COLO 205 colon): > 100 µM
TGI (MALME-3M melanoma): > 100 µM
TGI (HS 578T breast): > 100 µM
TGI (SK-OV-3 ovarian): > 100 µM

NNC(=O)c1cc(=O)[nH][nH]1
TGI (TK-10 renal): > 100 µM
TGI (UACC-257 melanoma): > 100 µM
TGI (786-0 renal): > 100 µM
TGI (SK-MEL-2 melanoma): > 100 µM
TGI (RXF 393 renal): > 100 µM
TGI (COLO 205 colon): > 100 µM
TGI (MALME-3M melanoma): > 100 µM
TGI (HS 578T breast): > 100 µM
TGI (SK-OV-3 ovarian): > 100 µM

CCOc1cc(NC(C)=O)ccc1C(=O)NN1C(=O)CSC1c1ccccc1 (stereo unspecified)
TGI (TK-10 renal): > 100 µM
TGI (UACC-257 melanoma): > 100 µM
TGI (786-0 renal): > 100 µM
TGI (SK-MEL-2 melanoma): > 100 µM
TGI (RXF 393 renal): > 100 µM
TGI (COLO 205 colon): > 100 µM
TGI (MALME-3M melanoma): > 100 µM
TGI (HS 578T breast): > 100 µM
TGI (SK-OV-3 ovarian): > 100 µM

O=[N+]([O-])c1ccc(O)c(/C=N/NC(=S)N2CCCCC2)c1
TGI (TK-10 renal): 44 µM
TGI (UACC-257 melanoma): 14.1 µM
TGI (786-0 renal): 13.8 µM
TGI (SK-MEL-2 melanoma): 50.4 µM
TGI (RXF 393 renal): > 100 µM
TGI (COLO 205 colon): > 37.9 µM
TGI (MALME-3M melanoma): 10.3 µM
TGI (HS 578T breast): > 60 µM
TGI (SK-OV-3 ovarian): > 56.6 µM
